# Measured values published in PubChem BioAssay (NCI).
# “And” between values parts separate entries of the source, which are not always exact repeats. Identical values can stand only once.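 Method: 48-hour compound exposure of cells in 96-well plates, five concentrations, linear interpolation of endpoints. Here, GI50 denotes the concentration required for 50% inhibition of growth. TGI: total growth inhibition.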
# What was measured:
# Assay in all cases: NCI tumour cell line growth inhibition, 48 h
# [1] = system: CCRF-CEM leukemia
# [2] = system: M14 melanoma
# [3] = system: MALME-3M melanoma
# [4] = system: OVCAR-3 ovarian
# [5] = system: SK-MEL-2 melanoma
# [6] = system: SK-OV-3 ovarian
# [7] = system: SR leukemia
# [8] = system: UACC-257 melanoma
# [9] = system: HCC-2998 colon
# [10] = system: MCF7 breast
SMILES,TGI [1],TGI [2],TGI [3],TGI [4],TGI [5],TGI [6],TGI [7],TGI [8],TGI [9],TGI [10],GI50 [1],GI50 [2],GI50 [10],GI50 [4],GI50 [5],GI50 [6],GI50 [7],GI50 [8],GI50 [9],GI50 [3]
C[N+](C)(C)CC1CCC/C1=N\OC(=O)c1ccccc1 (stereo not given),> 100 µM,> 100 µM,> 100 µM,> 100 µM,> 100 µM,> 100 µM,> 100 µM,> 100 µM,–,–,–,–,–,–,–,–,–,–,–,–
C[C@H]1CN[C@@H]2[C@@H](C)[C@H]3[C@@H](C[C@H]4[C@@H]5CC[C@H]6C[C@@H](N)CC[C@]6(C)[C@H]5CC[C@]34C)O[C@@]2(O)C1,4.27 µM,4.73 µM,3.23 µM,5.96 µM,12.2 µM,19.7 µM,–,3.74 µM,6.23 µM,26.3 µM,–,–,–,–,–,–,–,–,–,–
Cc1nc2cc(Nc3nc(Nc4ccc(F)cc4)nc(-c4cccs4)n3)ccc2n1Cc1ccccc1,7.21 µM,24.6 µM,–,38.1 µM,5.44 µM,> 100 µM,7.44 µM,30.1 µM,–,7.91 µM,2.46 µM,5.42 µM,2.15 µM,4.87 µM,2.36 µM,33.4 µM,2.56 µM,5.42 µM,–,–
COc1ccc(C(O)(CCC(C)C)C(CN2CCOCC2)c2ccc(Cl)cc2)cc1 (stereo not given),34.8 µM,33.2 µM,39.5 µM,26.2 µM,–,75.8 µM,28.9 µM,33 µM,24 µM,24.6 µM,13.6 µM,13.9 µM,10.4 µM,12.9 µM,–,21.8 µM,10.4 µM,13.4 µM,10.7 µM,19.1 µM
CS/C(=C(\S)c1ccccc1)c1ccccc1,–,> 100 µM,> 100 µM,> 100 µM,> 100 µM,> 100 µM,> 100 µM,> 100 µM,> 100 µM,–,–,–,–,–,–,–,–,–,–,–
CC(=O)N1CCC(=O)/C(=C/c2ccccc2)C1,–,> 100 µM,> 100 µM,93.5 µM,–,> 100 µM,72.5 µM,> 100 µM,> 100 µM,–,–,–,–,–,–,–,–,–,–,–
CC1(C)CC(=O)CC(=Nc2ccc([N+](=O)[O-])cc2)C1,60.8 µM,> 100 µM,> 100 µM,> 100 µM,> 100 µM,> 100 µM,88.5 µM,> 100 µM,> 100 µM,–,–,–,–,–,–,–,–,–,–,–
C[C@]12CCC(=O)C=C1CC[C@@H]1C2CC[C@]2(C)Nc3[nH]ncc3CC12 (stereo not given in full),> 100 µM,> 100 µM,> 100 µM,> 100 µM,> 100 µM,> 100 µM,–,> 100 µM,> 100 µM,–,–,–,–,–,–,–,–,–,–,–
C/C(=N\NC(=S)N1CCCCCC1)c1ccccn1,–,1.56 µM and 0.74 µM,1.17 µM and 1.72 µM,0.172 µM,0.569 µM and 1.83 µM,2.28 µM,–,0.83 µM and 0.969 µM,2.03 µM and 1.35 µM,0.0245 µM,–,0.0103 µM,–,–,0.0694 µM,–,–,–,0.0374 µM,0.0966 µM
COC(=O)C1=C(C(=O)OC)C2=S(SC3=C2CCCC3)S1 (stereo not given),19.7 µM,> 100 µM,71.1 µM,40.1 µM,85.6 µM,> 100 µM,–,> 100 µM,> 100 µM,–,–,–,–,–,–,–,–,–,–,–
CCCCCCCN=C(N)c1ccc(N2CCN(c3ccc(C(N)=NCCCCCCC)cc3)CC2)cc1,> 100 µM,> 100 µM,–,0.517 µM,> 100 µM,> 26.4 µM,–,4.39 µM,0.163 µM,–,1.1 µM,7.29 µM,0.208 µM,0.162 µM,1.99 µM,0.735 µM,–,1.24 µM,0.0231 µM,–
CCN(CC)CCSc1c2ccccc2nc2c(OC)ccc(OC)c12,> 68.9 µM,15.4 µM,> 60.9 µM,–,> 23 µM,69.2 µM,10.7 µM,16.5 µM,> 36 µM,–,–,–,–,–,–,–,–,–,–,–
Cn1cc(-c2csc(-c3c[nH]c4ccc(Br)cc34)n2)c2cnccc21,1.86 µM,3.61 µM,3.96 µM,4.19 µM,6.35 µM,–,–,–,–,3.71 µM,0.422 µM,1.87 µM,1.77 µM,2.08 µM,2.58 µM,–,–,–,–,2.23 µM
S=c1[nH]c2c(Cl)c(Cl)c(Cl)c(Cl)c2[nH]1,19.5 µM,54.3 µM,38.5 µM,97.3 µM,–,55.3 µM,–,46.4 µM,23.6 µM,40.5 µM,–,–,–,–,–,–,–,–,–,–
CCc1c(Cl)c(C)cc(O)c1Cl,91.7 µM,92.5 µM,> 100 µM,> 100 µM,68.3 µM,> 100 µM,–,99.7 µM,26.7 µM,> 100 µM,–,–,–,–,–,–,–,–,–,–
COC(=O)c1ccc(-c2c(C#N)[n+](=O)c3cc(Cl)c(Cl)cc3n2[O-])cc1,7.79 µM,34.1 µM,44.3 µM,27.8 µM,–,–,–,50.1 µM,37.7 µM,42.1 µM,2.85 µM,16.2 µM,19.2 µM,11 µM,–,–,–,21.5 µM,16.9 µM,20 µM
CN(C)CCNC(=O)c1cccc2c(Nc3ccc(S(=O)(=O)N=C(N)N)cc3)c3ccccc3nc12,30.2 µM,> 100 µM,–,–,38.5 µM,–,> 100 µM,–,–,–,–,–,–,–,–,–,–,–,–,–
Cn1c2ccccc2c2ncc3[nH]c4ccccc4c3c21,> 100 µM,35.2 µM,> 100 µM,31.6 µM,> 100 µM,80.8 µM,–,42.6 µM,> 100 µM,–,–,–,–,–,–,–,–,–,–,–
COc1ccc2c(c1)c[n+](C)c1c3cc(OC)c(OC)cc3ccc21,> 100 µM and 12.4 µM,3.05 µM and 14.3 µM,14.9 µM and 26 µM,15 µM,6.12 µM and 16.9 µM,29.4 µM,13.2 µM,4.36 µM and 30.8 µM,3.71 µM and 19.9 µM,–,0.559 µM and 1.42 µM,1.41 µM and 4.48 µM,–,–,2.3 µM and 7.11 µM,–,–,1.8 µM and 13.5 µM,1.86 µM and 7.34 µM,3.71 µM and 12.4 µM
CCOC(=O)C1SC(=Nc2ccccc2)N=C1C (stereo not given),–,–,> 100 µM,> 100 µM,> 100 µM,–,> 100 µM,> 100 µM,> 100 µM,–,–,–,–,–,–,–,–,–,–,–
O=[N+]([O-])c1ccc(-c2cnc3ccccn23)cc1,> 100 µM,> 100 µM,> 100 µM,> 100 µM,> 100 µM,> 100 µM,> 100 µM,> 100 µM,–,–,–,–,–,–,–,–,–,–,–,–
